Test results as given in patent publication US20250170239A1, “CELLULAR REPROGRAMMING BY TARGETING THE GOLGI APPARATUS” (MUSC Foundation for Research Development, priority 2023, published 2025).
“Also recorded” adds a separate entry of the source.

Tests used:
[1] = system: Prdx4 knockdown T cells; assay: Prdx4 siRNA knockdown Pmel T cells under Golgi/oxidative stress; type: cell-based, mouse
Description: (FIG. 22A) Pmel T cells were activated for 3 days before treatment with vehicle or 50 mM H2O2 for 6 hrs. Prdx4-Golgi colocalization was assessed by PLA using mouse anti-Giantin and rabbit anti-Prdx4 antibodies. (FIG. 22B) Activated Pmel T cells treated with vehicle or 50 mM H2O2 for 6 hrs or 24 hrs with Monensin (1 mM). PLA assay was performed using anti-Giantin and anti-Prdx4 antibodies. (FIG. 22C) Experimental design using Prdx4-targeted siRNA to silence expression of Prdx4 in Pmel T cells. (FIG. 22D) GM130 expression assessed under control versus Monensin (1 μM) conditions in T cells treated with control-siRNA or Prdx4-siRNA. (FIG. 22E) GM130 expression assessed under control versus 50 mM H2O2 conditions in T cells treated with control-siRNA or Prdx4-siRNA+/−0.5 mM GYY4137. (FIG. 22F) Protein translation assessed in Pmel T cells activated+/−GYY4137 and treated with control-siRNA or Prdx4-siRNA. (FIG. 22G) GM130 expression in Pmel T cells treated with vehicle, GYY4137, or Catalase (10 μg/mL). (FIGS. 22H and 22I) Site directed mutagenesis performed to mutate cysteine-54 of the Prdx4 gene. Prdx4-targeted shRNA was used to knock down expression of Prdx4 in Jurkat T cells, followed by transfection with plasmid containing wildtype or mutated Prdx4. (FIG. 22I) GM130 expression assessed after treatment with 50 mM H2O2+/−GYY4137. (FIG. 22J) B16-F10 tumors were injected s.c. into flanks of Pmel mice and grown to ˜100 mm2. TILs and T cells from tumor-draining lymph nodes were isolated via Ficoll spin followed by magnetic bead positive selection. FACS analysis of Prdx4 expression in TILs gated on PD1loLag3lo vs PD1hiLag3hi. (FIG. 22K) Lentiviral supernatant was generated using GFP-tagged control plasmid or GFP-tagged Prdx4-overexpression plasmid. Pmel T cells were transduced with control or Prdx4 lentivirus. Pmel T cells overexpressing Prdx4 and control T cells were treated with H2O2 (50 mM) followed by staining with anti-GM130.
Given the delicate redox balance necessary for the native disulfide bonds, it was postulated that a localized mechanism for the detection and elimination of ROS produced during the oxidative folding process may require Prdx4. Thus, it was hypothesized that ER and Golgi network stress mitigated by H2S is mediated through the Prdx4 localization and activity in these organelles. First, it was established if Prdx4 also localizes within the Golgi apparatus in T cells using a proximity ligation assay (PLA), a tool that allows in situ detection of endogenous proteins with high specificity and sensitivity, with antibodies directed against Giantin (a conserved Golgi membrane protein) and Prdx4. […] Next, using siRNA targeting Prdx4, expression of Prdx4 in CD8+ Pmel T cells was knocked down (FIG. 22C, FIGS. 23A and 23B). The cells were then subjected to conditions of oxidative and Golgi stress in the presence or absence of H2S treatment. […] Then, to determine whether the protective effect of H2S on Golgi stress is dependent on the presence of Prdx4, Golgi stress was induced in the presence or absence of H2S with control (siCtl) and Prdx4 knockdown (siPrdx4) T cells.

[2] = system: Golgi^lo T cells; details: GYY4137 (0.5 mM) 3 days, stimulated with gp100
Description: Cells were subsequently stimulated with gp100 antigen and analyzed for production of cytokines by FACS (n=4). (FIG. 25B) Quantification of FACS MFI values for MitoTracker Deep Red FM stain in Golgi^hi vs. Golgi^lo cells (n=4 independent samples). (FIG. 25C) Real-time flux in OCR measured using Seahorse metabolic flux analysis. Shown is the quantification of mean oxygen consumption rate (OCR) throughout the assay, spare respiratory capacity (SRC), maximal respiration, and basal respiration (n=experimental replicates representative of 3 separate experiments). (FIG. 25D) FACS sorted Golgi^hi vs. Golgi^lo melanoma epitope gp100 TCR reactive CD8+ T cells from Pmel mouse were analyzed using transmission electron microscopy (TEM) to evaluate mitochondria and Golgi morphology. (FIG. 25E-25H) Global metabolomics analysis was performed on Golgi^hi vs. Golgi^lo Pmel T cells and analyzed for PCA (FIG. 25E) and pathway enrichment (FIG. 25F). […] (FIGS. 25M and 25N) Human CD19 CAR-T cells were expanded and sorted into Golgi^hi and Golgi^lo based on BODIPY TR Ceramide dye fluorescence and were co-cultured at a 1:1 ratio with Raji cells. (FIG. 25M) The percentage of viable Raji cells remaining after 24 hours was analyzed using FACS. (FIG. 25N) Expression of Perforin and Granzyme B was assessed using FACS in sorted CD19 CAR-T cells following co-culture with Raji cells. […]

C1COCCN1.COc1ccc(P(=S)(S)N2CCOCC2)cc1 (stereo not shown) [GYY4137]
GM130 expression under Golgi stress, control (siCtl) T cells ([1]; 50 mM H2O2 +/− 0.5 mM GYY4137): prevented the decrease in GM130 expression | GM130 expression under Golgi stress, Prdx4 knockdown (siPrdx4) T cells ([1]; 50 mM H2O2 +/− 0.5 mM GYY4137, listed as H2S): protective effect was absent; also recorded: absent when Prdx4 was knocked down | increase in protein translation, Prdx4 knockdown T cells ([1]; +/− GYY4137): not observed | effector functions (cytokines by FACS) of Golgi^lo T cells [2]: partial restoration of their effector functions
